Test results as given in US4100346A, “Certain 7(o-amino-methyl- or methylaminomethylphenyl- or cyclohexadienyl- or thienylacetamide)-3[1-carboxymethyl-(or ethyl- or propyl-)-tetrazol-5-ylthiomethyl]-3-cephem-4-carboxylic acids” (Bristol-Myers Company, priority 1976, dated 1978).
In brackets after ≈: the same amount, converted by molar mass. Like-named read-outs stand apart in the source and are kept apart here.

Key:
Alcaligenes sp. = test: Growth inhibitory activity, antibiotic dilution technique
in vitro = in vitro ADME, human; conditions: human, serum; read-out: protein bound (converted)
Staphylococcus Aureus [1] = test: Effect of inoculum size on susceptibility of Staphylococcus aureus; type: cell-based; conditions: for MICB /MICA: MIC at 10^6 over MIC at 10^2 organisms; for MIC: Staphylococcus aureus, geometric means, read-out: Minimum inhibitory concentration
Enterobacter cloacae = test: Effect of inoculum size on susceptibility of Enterobacteriaceae
Providencia stuartii = test: Growth inhibitory activity, antibiotic dilution technique
Pasteurella multocida = test: as above; conditions: read-out: Minimum inhibitory concentration
Citrobacter sp. = test: as above
Escherichia coli = test: Effect of inoculum size on susceptibility of Enterobacteriaceae
Edwardsiella tarda = test: Growth inhibitory activity, antibiotic dilution technique; conditions: read-out: Minimum inhibitory concentration
Staphylococcus aureus [2] = test: Intramuscular treatment of systemically infected mice; type: in vivo; conditions: im, read-out: PD50 /treatment
Excerpt: (§1) Treatment of Systemically Infected Mice. The procedures were identical with those published previously [Leitner et al., BL-S640, a Cephalosporin With a Broad Spectrum of Antibacterial Activity: Bioavailability and Therapeutic Properties in Rodents, Antimicrob. Agents Chemother. 7:306-310, (1975)], except that:
(§2) (a) the hog gastric mucin used in infections with Staphylococcus aureus No. 2 was purchased from American Laboratories, Inc., Omaha, Neb. (lot No. 154163) and b) that the medium used to suspend all other organisms contained 3% (rather than 4%) hog gastric mucin (type 1701W, Wilson Laboratories, Inc., Park Forest South, Ill.).
(§3) *Animals infected with penicillinase-producing staphyloccal strains (No.
(§4) and 3) were treated 0 and 2 hours after infection; the others were treate
(§5) 1 and 3.5 hours after infection.

Streptococcus pyogenes = test: as above; type: in vivo; conditions: im, 3.5 h, read-out: PD50 /treatment
Excerpt: as §1, §2, §3, §4, §5

Streptococcus pneumoniae = test: as above; type: in vivo; conditions: im, 3.5 h, read-out: PD50 /treatment
Excerpt: as §1, §2, §3, §4, §5

Proteus vulgaris = test: Effect of inoculum size on susceptibility of Enterobacteriaceae
Proteus mirabilis = test: as above
[3] = biological target: staphylococcal β-lactamase, Staphylococcus aureus A9606 (Staphylococcus aureus, UniProt P00807); test: Hydrolysis by β-lactamase in cell-free extracts; type: biochemical; conditions: cell-free extract
Sequence of staphylococcal β-lactamase, Staphylococcus aureus A9606 (P00807 25-281): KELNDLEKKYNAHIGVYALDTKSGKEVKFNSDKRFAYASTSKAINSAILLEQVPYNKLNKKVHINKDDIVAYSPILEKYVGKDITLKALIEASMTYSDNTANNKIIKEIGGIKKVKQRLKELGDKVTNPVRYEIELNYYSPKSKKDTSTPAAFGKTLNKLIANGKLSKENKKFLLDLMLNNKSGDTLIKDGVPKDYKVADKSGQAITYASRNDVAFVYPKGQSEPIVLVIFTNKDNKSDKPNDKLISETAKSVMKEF
Protocol: Miscellaneous. Methods for determining bactericidal activity and susceptibility to cell-free β-lactamase were those previously used; Leitner et al., BL-S640, A Cephalosporin With a Broad Spectrum of Antibacterial Activity: Properties in vitro, Antimicrob. Agents Chemother. 7:298-305 (1975).
Susceptibility to β-lactamase. Susceptibility to enzymic hydrolysis was assessed by determining relative rates of hydrolysis by cell-free preparations of various β-lactamases (Table 6). BL-S786 was slightly to markedly less susceptible than the other cephalosporins to hydrolysis by β-lactamases of Type Ia, Ib, IIIa and IVa. All cephalosporins were poor substrates for Type IIa and staphylococcal β-lactamases. The four cephalosporins were hydrolyzed at similar rates by the Type IVb enzyme.

Pseudomonas aeruginosa = test: Growth inhibitory activity, antibiotic dilution technique; conditions: read-out: Minimum inhibitory concentration
Haemophilus influenzae = test: as above; conditions: including 9 ampicillin-resistant strains
Erwinia sp. = test: as above; conditions: read-out: Minimum inhibitory concentration

O=C(Cc1cccs1)N[C@@H]1C(=O)N2C(C(=O)[O-])=C(C[n+]3ccccc3)CS[C@H]12 [Cephaloridine]
MIC (Alcaligenes sp.; read-out: Minimum inhibitory concentration, Alcaligenes sp., 2 strains, geometric mean when applicable): > 125 µg/mL | MIC (Alcaligenes sp.; read-out: Minimum inhibitory concentration, Alcaligenes sp., 4 strains, geometric mean when applicable): > 125 µg/mL | MIC (Alcaligenes sp.; read-out: Minimum inhibitory concentration, Alcaligenes sp., 5 strains, geometric mean when applicable): 6.1 µg/mL (≈ 14.7 µM) | fraction unbound (in vitro): 0.7 | MICB /MICA (Staphylococcus Aureus [1]; Lacking penicillinase, 3 strains): 1.6 | MICB /MICA (Staphylococcus Aureus [1]; Penicillinase producer, 26 strains): 20 | MIC (Staphylococcus Aureus [1]; Lacking penicillinase, 3 strains, A, Inoculum of 10^2 organisms): 0.025 µg/mL (≈ 0.0602 µM) | MIC (Staphylococcus Aureus [1]; Lacking penicillinase, 3 strains, B, inoculum of 10^6 organisms): 0.039 µg/mL (≈ 0.0939 µM) | MIC (Staphylococcus Aureus [1]; Penicillinase producer, 26 strains, A, Inoculum of 10^2 organisms): 0.077 µg/mL (≈ 0.185 µM) | MIC (Staphylococcus Aureus [1]; Penicillinase producer, 26 strains, B, inoculum of 10^6 organisms): 1.6 µg/mL (≈ 3.85 µM) | effect of cell concentration on growth inhibitory activity (Staphylococcus Aureus [1]; penicillinase-producing strains): sharply | MIC (Enterobacter cloacae; read-out: Minimum Inhibitory Concentration, Enterobacter cloacae strain 1, A, Inoculum of 10^2 organisms): 4 µg/mL (≈ 9.63 µM) | MIC (Enterobacter cloacae; read-out: Minimum Inhibitory Concentration, Enterobacter cloacae strain 1, B, Inoculum of 10^6 organisms): > 250 µg/mL | MIC (Enterobacter cloacae; read-out: Minimum Inhibitory Concentration, Enterobacter cloacae strain 2, A, Inoculum of 10^2 organisms): 125 µg/mL (≈ 301 µM) | MIC (Enterobacter cloacae; read-out: Minimum Inhibitory Concentration, Enterobacter cloacae strain 2, B, Inoculum of 10^6 organisms): > 250 µg/mL | MIC (Enterobacter cloacae; read-out: Minimum Inhibitory Concentration, Enterobacter cloacae strain 3, A, Inoculum of 10^2 organisms): 16 µg/mL (≈ 38.5 µM) | MIC (Enterobacter cloacae; read-out: Minimum Inhibitory Concentration, Enterobacter cloacae strain 3, B, Inoculum of 10^6 organisms): 250 µg/mL (≈ 602 µM) | MIC (Enterobacter cloacae; read-out: Minimum Inhibitory Concentration, Enterobacter cloacae strain 4, A, Inoculum of 10^2 organisms): > 250 µg/mL | MIC (Enterobacter cloacae; read-out: Minimum Inhibitory Concentration, Enterobacter cloacae strain 4, B, Inoculum of 10^6 organisms): > 250 µg/mL | MIC (Enterobacter cloacae; read-out: Minimum Inhibitory Concentration, Enterobacter cloacae strain 5, A, Inoculum of 10^2 organisms): 63 µg/mL (≈ 152 µM) | MIC (Enterobacter cloacae; read-out: Minimum Inhibitory Concentration, Enterobacter cloacae strain 5, B, Inoculum of 10^6 organisms): > 250 µg/mL | percent of strains inhibited (Providencia stuartii): negligible | MIC (Pasteurella multocida): 0.5 µg/mL (≈ 1.2 µM) | MIC (Citrobacter sp.; read-out: Minimum inhibitory concentration, Citrobacter sp., 1 strain): > 125 µg/mL | MIC (Citrobacter sp.; read-out: Minimum inhibitory concentration, Citrobacter sp., 4 strains, geometric mean when applicable): > 125 µg/mL | MIC (Escherichia coli; read-out: Minimum Inhibitory Concentration, Escherichia coli strain 1, A, Inoculum of 10^2 organisms): 2 µg/mL (≈ 4.81 µM) | MIC (Escherichia coli; read-out: Minimum Inhibitory Concentration, Escherichia coli strain 1, B, Inoculum of 10^6 organisms): 8 µg/mL (≈ 19.3 µM) | MIC (Escherichia coli; read-out: Minimum Inhibitory Concentration, Escherichia coli strain 2, A, Inoculum of 10^2 organisms): 4 µg/mL (≈ 9.63 µM) | MIC (Escherichia coli; read-out: Minimum Inhibitory Concentration, Escherichia coli strain 2, B, Inoculum of 10^6 organisms): 16 µg/mL (≈ 38.5 µM) | MIC (Escherichia coli; read-out: Minimum Inhibitory Concentration, Escherichia coli strain 3, A, Inoculum of 10^2 organisms): 2 µg/mL (≈ 4.81 µM) | MIC (Escherichia coli; read-out: Minimum Inhibitory Concentration, Escherichia coli strain 3, B, Inoculum of 10^6 organisms): 4 µg/mL (≈ 9.63 µM) | MIC (Escherichia coli; read-out: Minimum Inhibitory Concentration, Escherichia coli strain 4, A, Inoculum of 10^2 organisms): 2 µg/mL (≈ 4.81 µM) | MIC (Escherichia coli; read-out: Minimum Inhibitory Concentration, Escherichia coli strain 4, B, Inoculum of 10^6 organisms): 4 µg/mL (≈ 9.63 µM) | MIC (Escherichia coli; read-out: Minimum Inhibitory Concentration, Escherichia coli strain 5, A, Inoculum of 10^2 organisms): 4 µg/mL (≈ 9.63 µM) | MIC (Escherichia coli; read-out: Minimum Inhibitory Concentration, Escherichia coli strain 5, B, Inoculum of 10^6 organisms): 8 µg/mL (≈ 19.3 µM) | MIC (Escherichia coli; read-out: Minimum Inhibitory Concentration, Escherichia coli strain 6, A, Inoculum of 10^2 organisms): 2 µg/mL (≈ 4.81 µM) | MIC (Escherichia coli; read-out: Minimum Inhibitory Concentration, Escherichia coli strain 6, B, Inoculum of 10^6 organisms): 8 µg/mL (≈ 19.3 µM) | MIC (Escherichia coli; read-out: Minimum Inhibitory Concentration, Escherichia coli strain 7, A, Inoculum of 10^2 organisms): 2 µg/mL (≈ 4.81 µM) | MIC (Escherichia coli; read-out: Minimum Inhibitory Concentration, Escherichia coli strain 7, B, Inoculum of 10^6 organisms): 4 µg/mL (≈ 9.63 µM) | MIC (Edwardsiella tarda): 1 µg/mL (≈ 2.41 µM) | ED50 (Staphylococcus aureus [2]; 3.5 h, Staphylococcus aureus strain 1, challenge 2 × 10^5 - 3 × 10^5, treated 1 and 3.5 hours after infection): 0.01 mg/kg | ED50 (Staphylococcus aureus [2]; Staphylococcus aureus strain 2 (penicillinase-producing), challenge 1 × 10^9, treated 0 and 2 hours after infection): 3.2 mg/kg | ED50 (Staphylococcus aureus [2]; Staphylococcus aureus strain 3 (penicillinase-producing), challenge 5 × 10^8 - 7 × 10^9, treated 0 and 2 hours after infection): 3.3 mg/kg | ED50 (Streptococcus pyogenes; Streptococcus pyogenes strain 1, challenge 2 × 10^3 -6 × 10^3, treated 1 and 3.5 hours after infection): 0.06 mg/kg | ED50 (Streptococcus pyogenes; Streptococcus pyogenes strain 2, challenge 1 × 10^4 - 5 × 10^4, treated 1 and 3.5 hours after infection): 0.02 mg/kg | ED50 (Streptococcus pneumoniae; Streptococcus pneumoniae strain 1, challenge 2 × 10^3 - 9 × 10^3, treated 1 and 3.5 hours after infection): 0.1 mg/kg | ED50 (Streptococcus pneumoniae; Streptococcus pneumoniae strain 2, challenge 1 × 10^4 - 3 × 10^4, treated 1 and 3.5 hours after infection): 0.26 mg/kg | MIC (Proteus vulgaris; read-out: Minimum Inhibitory Concentration, Proteus vulgaris strain 1, A, Inoculum of 10^2 organisms): 4 µg/mL (≈ 9.63 µM) | MIC (Proteus vulgaris; read-out: Minimum Inhibitory Concentration, Proteus vulgaris strain 1, B, Inoculum of 10^6 organisms): 16 µg/mL (≈ 38.5 µM) | MIC (Proteus vulgaris; read-out: Minimum Inhibitory Concentration, Proteus vulgaris strain 2, A, Inoculum of 10^2 organisms): 8 µg/mL (≈ 19.3 µM) | MIC (Proteus vulgaris; read-out: Minimum Inhibitory Concentration, Proteus vulgaris strain 2, B, Inoculum of 10^6 organisms): 250 µg/mL (≈ 602 µM) | MIC (Proteus vulgaris; read-out: Minimum Inhibitory Concentration, Proteus vulgaris strain 4, A, Inoculum of 10^2 organisms): 8 µg/mL (≈ 19.3 µM) | MIC (Proteus vulgaris; read-out: Minimum Inhibitory Concentration, Proteus vulgaris strain 4, B, Inoculum of 10^6 organisms): 16 µg/mL (≈ 38.5 µM) | MIC (Proteus mirabilis; read-out: Minimum Inhibitory Concentration, Proteus mirabilis strain 1, A, Inoculum of 10^2 organisms): 4 µg/mL (≈ 9.63 µM) | MIC (Proteus mirabilis; read-out: Minimum Inhibitory Concentration, Proteus mirabilis strain 1, B, Inoculum of 10^6 organisms): 16 µg/mL (≈ 38.5 µM) | MIC (Proteus mirabilis; read-out: Minimum Inhibitory Concentration, Proteus mirabilis strain 2, A, Inoculum of 10^2 organisms): 8 µg/mL (≈ 19.3 µM) | MIC (Proteus mirabilis; read-out: Minimum Inhibitory Concentration, Proteus mirabilis strain 2, B, Inoculum of 10^6 organisms): 16 µg/mL (≈ 38.5 µM) | MIC (Proteus mirabilis; read-out: Minimum Inhibitory Concentration, Proteus mirabilis strain 3, A, Inoculum of 10^2 organisms): 8 µg/mL (≈ 19.3 µM) | MIC (Proteus mirabilis; read-out: Minimum Inhibitory Concentration, Proteus mirabilis strain 3, B, Inoculum of 10^6 organisms): 32 µg/mL (≈ 77 µM) | MIC (Proteus mirabilis; read-out: Minimum Inhibitory Concentration, Proteus mirabilis strain 4, A, Inoculum of 10^2 organisms): 4 µg/mL (≈ 9.63 µM) | MIC (Proteus mirabilis; read-out: Minimum Inhibitory Concentration, Proteus mirabilis strain 4, B, Inoculum of 10^6 organisms): 32 µg/mL (≈ 77 µM) | MIC (Proteus mirabilis; read-out: Minimum Inhibitory Concentration, Proteus mirabilis strain 5, A, Inoculum of 10^2 organisms): 4 µg/mL (≈ 9.63 µM) | MIC (Proteus mirabilis; read-out: Minimum Inhibitory Concentration, Proteus mirabilis strain 5, B, Inoculum of 10^6 organisms): 16 µg/mL (≈ 38.5 µM) | Relative Rate of Hydrolysis (benzylpenicillin = 100) [3]: < 0.5 | MIC (Pseudomonas aeruginosa): > 125 µg/mL | relative activity against Haemophilus influenzae (Haemophilus influenzae): about equally active | MIC (Erwinia sp.): 2 µg/mL (≈ 4.81 µM)
